Key:
[1] = system: d(TTAGGG)4 (HT24), G4 structure of human telomere; assay: CD and 1H NMR spectra: conversion of G4 structure conformation of HT24 in K+ or Na+ solution; assay type: binding; settings: for formation of G4 structures and conversion of G4 structures of human telomeres from nonparallel to parallel forms: K+ solution, summary statement; for CD spectral change before and after annealing: 5 μM HT24, 1 eq. compound
Experimental: (§1) All oligonucleotides were purchased from Bio Basic Inc. and used without further purification, including the single strand sequence derived from telomere of human chromosome, d(TTAGGG)4 (HT24) (SEQ ID NO: 1). Solutions of 10 mM Tris-HCl (pH 7.5) and its mixed solutions with KCl were mixed with each DNA sample and heated to 95° C. for 10 min first, cooled slowly to room temperature, and then stored for 48 h at 4° C. before use.
It is well-known that the linear parallel G4 structures, such as a propeller form, give a positive band at around 265 nm and a negative band at around 240 nm, while the anti-parallel G4 structures, such as a basket or chair form, show two positive bands at around 295 nm and 240 nm and a negative band at around 265 nm. In addition, the hybrid type G4 structures (3+1, including 3 parallel and 1 anti-parallel G4 structures) give a positive CD band at around 290 nm and a positive shoulder band at around 265 nm. The anti-parallel and hybrid type are both so-called “non-parallel” G4 structures. These spectral features are mainly attributed to the specific guanine stacking in various G4 structures.
(§2) J-815 spectropolarimeter (Jasco, Japan) with a 2 nm bandwidth at a 50 nm/min scan speed and a 0.2 nm step resolution was used to obtain CD spectra, and the following data was provided as an average of 10 scan results. The CD spectra were measured by monitoring the G4 structures under N2 over the range of 210 nm to 350 nm, and the thermal melting curves, as a function of temperature, were obtained by monitoring the CD intensity at 265 nm. Three independently scans were recorded for each sample. The melting temperature (Tm) was measured from the first differentiation of the melting curve.
5 μM HT24 and 1 eq. BMVC-8C3O (the equivalence ratio of HT24:BMVC-8C30 is 1:1) were used to detect whether BMVC-8C3O could convert the G4 structure conformation of HT24 from non-parallel to parallel.
The CD spectra of the HT24 and its complexes with 1 eq. BMVC-8C3O mixed in a 150 mM K^+ solution or in a 150 mM Na^+ solution were measured right after the mixing step under room temperature, as shown in FIGS. 2A and 2B (+BMVC-8C3O×1). Another set of spectra were obtained after these samples were annealed, i.e. heated at 95° C., and then gradually cooled down to room temperature (+BMVC-8C3O×1 anneal). […] These spectral features are consistent with the spectral changes of d[G3(T2AG3)3] (HT21) in K^+ or Na^+ solution upon the addition of 40% PEG (see Xue et al., 2007). That is to say, the peak at 265 nm (parallel G4 structure) increases and the peak at 290 nm (non-parallel G4 structure) decreases. This is, BMVC-8C3O and 40% PEG can converse the G4 structures from the non-parallel to the parallel.
BMVC-8C3O at 37° C., as a function of time.
In addition, 0.1 mM HT24 was mixed with 5 eq. BMVC-8C3O and dissolved in a H2O/D2O (90%/10%) solution containing 10 mM tris-HCl (pH 7.5) and 150 mM KCl to prepare samples for NMR (control sample was without BMVC-8C3O). Then the imino protons in the chemical shift range of 9-14 ppm were measured on a Bruker AVIII 800 MHz spectrometer using a pulsed-gradient spin-echo sequence with a selective refocusing pulse, and the chemical shift was measured relative to a D2O solution of DSS as an external reference. […] The NMR spectra show significant changes after adding 5 eq.
When 1 eq. […] However, when the concentration of BMVC-8C3O is increasing, the necessity of the annealing step decreases. For example, 5 eq. BMVC-8C3O induces spectra changes of the complex of HT24 and BMVC-8C3O in 150 mM K^+ solution at 37° C. (converting from non-parallel to parallel), and the annealing step is not necessary (see FIG. 2C).

[2] = system: d(TTAGGG)4 (HT24), G4 structure of human telomere; assay: CD thermal melting curve (265 nm) of HT24 G4 structure; assay type: binding
Experimental: as §1, §2
The BMVC-8C3O of the present invention can not only induce the formation of G4 structures, but also stabilize G4 structures. FIGS. 3A and 3B show the CD spectra of HT24 and its complex with 5 eq. BMVC-8C3O in 5 mM K^+ solution at 25° C. and 95° C., respectively. […] BMVC-8C3O in 5 mM or 150 mM K^+ solution at 265 nm, as a function graph of temperature. After adding 5 eq. BMVC-8C3O at 37° C.

CL1-0 lung cancer cells = assay: Long-term cell proliferation curve, CL1-0 cancer cells; assay type: cell-based; settings: long-term treated with 1.0 μM
Experimental: (§3) CL1-0 lung cancer cells and MRC-5 normal human lung fibroblasts were used in the following experiments, wherein CL1-0 cells were cultured in RPMI-1640 medium containing 10% FBS (fetal bovine serum) and 1% antibiotics (including penicillin and streptomycin), and MRC-5 cells were cultured in MEM medium containing 10% FBS and 1% antibiotics.
(§4) When these cells were subcultured, culture medium containing 1.0 μM BMVC-8C3O (1% DMSO for the control) was used to separate these cells into 5×10^5 cells/petri dish having a diameter of 6 cm. After 2 or 3 days, these cells were trypsinized and counted, and subcultured again with the same density and method. Cells were subcultured repeatedly until the total cell number was less than 5×10^5.
(§5) FIGS. 4A and 4B show the cell proliferation curves of CL1-0 cancer cells and MRC-5 normal cells that long-term treated with 1.0 μM BMVC-8C3O. From FIG. 4A, it is obvious that the proliferation of CL1-0 cancer cells is slowed from around day 10, and stopped at around day 20.

[3] = system: d(TTAGGG)4 (HT24), single strand sequence derived from telomere of human chromosome; assay: CD spectra: induction of G4 structure formation of HT24 under a salt-deficient condition; assay type: binding; settings: 20 μM HT24, salt-deficient condition, room temperature, HT24:BMVC-8C3O 1:0 to 1:10
Experimental: as §1
First, circular dichroism spectroscopy (CD spectra) was used to examine whether BMVC-8C3O could induce the formation of G4 structure of human telomere, HT24, under a salt-deficient condition (Chang et al., 2007; Bugaut et al., 2008; Giraldo et al., 1994). […]
as §2, with “curve. […]” for “curve.”

[4] = system: MRC-5 normal human lung fibroblasts; assay: Long-term cell proliferation curve, MRC-5 normal cells; assay type: cell-based; settings: long-term treated with 1.0 μM
Experimental: as §3, §4, §5

Row | SMILES | formation of G4 structures and conversion of G4 structures of human telomeres from nonparallel to parallel forms [1] | increase of the melting temperature of the G4 structures of human telomeres ([2]; summary statement, conditions not given at the place) | day at which proliferation of CL1-0 cancer cells is stopped (CL1-0 lung cancer cells) [days] | day from which proliferation of CL1-0 cancer cells is slowed (CL1-0 lung cancer cells) [days] | CD spectral change before and after annealing ([1]; 150 mM K+ solution) | CD spectral change before and after annealing ([1]; 150 mM Na+ solution) | structural change of HT24 (imino proton 1H NMR spectra) ([1]; 0.1 mM HT24, 5 eq. compound, 150 mM KCl, 2 h and 12 h after adding) | conversion of G4 structure conformation of HT24 from non-parallel to parallel (CD spectra) ([1]; 5 eq. compound, 150 mM K+ solution, 37° C., without annealing) | enhancement of melting temperature (Tm) of HT24 ([2]; 5 eq. compound, 37° C. 24 hours, 5 mM K+ solution) | melting temperature (Tm) of HT24 complex ([2]; 5 eq. compound, 37° C. 24 hours, 5 mM K+ solution, HT24 alone approximately 41° C.) [°C] | induction of G4 structure formation of HT24 (CD spectra) [3] | effect on proliferation of MRC-5 normal cells [4]
1 | C[n+]1ccc(C=Cc2ccc3[nH]c4ccc(C=Cc5cc[n+](C)cc5)cc4c3c2)cc1.[I-].[I-] [BMVC, 3,6-bis(1-methyl-4-vinylpyridinium)carbazole diiodide, reference compound] | cannot be achieved | approximately 20 °C |  |  |  |  |  |  |  |  |  | 
2 | C[n+]1ccc(C=Cc2ccc3c(c2)c2cc(C=Cc4cc[n+](C)cc4)ccc2n3CCOCCOCCOCC[N+]2(C)CCCCC2)cc1.[I-].[I-].[I-] [BMVC-8C3O, 3,6-Bis(1-methyl-4-vinylpyridium iodide)-9-(1-(1-methyl-piperidinium iodide)-3,6,9-trioxaundecane) carbazole] | can induce the formation of G4 structures and convert the G4 structures of human telomeres from nonparallel to parallel forms |  | ~20 | ~10 | significant spectral changes | only CD intensity changes are observed | can induce the structural change of HT24 | can convert the conformation of G4 structures from non-parallel to parallel | about 50 °C | > 90 | can induce G4 formation under a salt-deficient condition | does not significantly affect

Reference: patent US20130005720A1, “PHARMACEUTICAL COMPOSITION FOR TREATING CANCER AND APPLICATIONS THEREOF” (Academia Sinica, priority 2011, published 2013)
